Reference: patent publication US11882828B2, “Mosquito vector control compositions, methods and products utilizing same” (priority 2015, dated 2024)

Key:
[1] = tested on: Aedes aegypti; assay: Example B7: evaluation of insecticide impregnated polymer surfaces; type: in vivo; details: AI content 2 wt %, polymer 4 to 6 weeks old; for mortality: 24 hours after exposure; for knock-down: after one hour
From the text: (§1) Preparation of polymeric sheets: Certain methoxyacrylate were Impregnated into three polymers: LDPE (low density polyethylene), HDPE (high density polyethylene) and PP (polypropylene) in different concentrations by mixing the respective polymer with a compound at high temperatures and the resultant polymeric material were then mould into thin discs or plaques.
(§2) Twenty four hours prior to the relevant assessment intervals, three to five day old non-blood fed adult mosquitoes were taken from the culture and lightly anaesthetised with carbon dioxide. Ten females were selected and placed in a 250 ml plastic cup, retained with a net lid, provided with a 10% sucrose solution soaked in a cotton wool bung and held under culturing environmental conditions.
(§3) After twenty four hours, impregnated polymer sheets (measuring about 150 mm in diameter and about 0.1 mm in thickness) were removed from storage and wrapped around the glazed side of an 11 cm ceramic tile and held in place with an elastic band. A cup of the pre-selected mosquitoes were again lightly anaesthetised with carbon dioxide and transferred from the holding cup to the base of a 9 cm plastic Petri dish. The relevant impregnated polymer sheet was placed over the Petri dish and held in place with an elastic band. Once the mosquitoes had recovered from the anaesthetic, ca. 1 minute, the impregnated polymer sheet was placed on a holding rack, such that treated side was at an angle of […] to the horizontal.
(§4) After one hour an assessment of mosquito knockdown was made. A mosquito was said to be knocked down if it was unable to right itself once it had fallen over. The mosquitoes were lightly anaesthetised again, and removed from the Petri dish exposure chamber and returned to the holding cups. The mosquitoes were supplied with a 10% sucrose solution soaked in a cotton wool bung and held under culturing environmental conditions. An assessment of mortality was made 24 hours after exposure. A mosquito was said to be dead if it is unable to right itself once it had fallen over.

[2] = tested on: Anopheles stephensi; assay: as above; type: in vivo; details: AI content 2 wt %; for mortality: 24 hours after exposure; for knock-down: after one hour
From the text: as §1, §2, §3, §4

[3] = tested on: Aedes aegypti; assay: whole plant or invertebrate; details: Aedes aegypti, 48 h
Procedure, shortened: (§5)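 Non-blood-fed adult females (2–5 days old), ten per well, were placed on dried ethanol deposits of the test compound at a defined concentration and fed 10% sucrose. Mortality was scored at 48 hours as the mean of two replicates.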

[4] = tested on: Anopheles stephensi; assay: whole plant or invertebrate; details: Anopheles stephensi, 48 h
Procedure, shortened: as §5

[5] = tested on: Ae. aegypti Caymon; assay: Example B4: cross resistance study, 6-well plate; type: in vivo
Experimental: (§6) In each study, a set of plates were infested with a known insecticide susceptible strain of mosquitoes from the same genera as the resistant strains.
(§7) Assessment of the knockdown after 60 minutes and mortality after 24 hours was carried out. Each treatment was replicated a minimum of four times, with the mean knockdown or mortality recorded.
(§8) A comparison of the knockdown and mortality of the resistant strain of mosquitoes was made to that of the susceptible to identify evidence of cross resistance.

[6] = tested on: Ae. Aegypti New Orleans; assay: Example B4: cross resistance study, 6-well plate; type: in vivo
Experimental: as §6, §7, §8

[7] = tested on: An. stephensi; assay: Example B4: cross resistance study, 6-well plate; type: in vivo
Experimental: as §6, §7, §8

[8] = tested on: An. Gambiae Kisumu rdl; assay: Example B4: cross resistance study, 6-well plate; type: in vivo
Experimental: as §6, §7, §8

[9] = tested on: An. Gambiae Tiassalé; assay: Example B4: cross resistance study, 6-well plate; type: in vivo
Experimental: as §6, §7, §8

[10] = tested on: An. Arabiensis Moz sus; assay: Example B4: cross resistance study, 6-well plate; type: in vivo
Experimental: as §6, §7, §8

[11] = tested on: An. Gambiae Kisumu sus; assay: Example B5: bottle based cross resistance study (CDC bottle assay); type: in vivo; details: Kisumu sus
Experimental: (§9) Based on the “CDC bottle assay” (described at http://www.cdc.gov/malaria/resources/pdf/fsp/ir_manual/ir_cdc_bioassay_en.pdf) 1 ml of ethanol containing a test compound at a defined concentration was added to a 250 ml glass bottle and the bottles were placed on a rolling table to coat the inner surfaces as the solvent evaporated. Once dry, twenty five non-blood fed adult female mosquitoes of the appropriate species and strains (each three day old) were aspirated from the stock culture and gently blown into the exposure bottles. The lid of the bottle was replaced and the bottle placed upright out of direct sun light under standard culture conditions, nominally 28C and 60-80% relative humidity.
(§10) A stopwatch was started, and the assessment of the knock-down were made after 15 minutes and 60 minutes. A mosquito was said to be knocked down if it was unable to stand, following the CDC definition. The bottles were replaced in an upright position when not being assessed.
(§11) After one hour the mosquitoes were carefully removed from the bottle with an aspirator and placed in a recovery cup. The mosquitoes were supplied with a 10% sucrose solution on a cotton wool bung, and stored under culture conditions. Assessments of the mortality were made after 24 hours.
(§12) Each treatment was replicated a minimum of four times, with the mean knockdown or mortality recorded. In each study, a set of bottles was infested with a known insecticide susceptible strain of mosquitoes from the same genera as the resistant strains.

[12] = tested on: VK7; assay: as above; type: in vivo; details: Anopheles coluzzii, 24 h, Table B5c, after 24 hours
Experimental: as §9, §10, §11, §12

[13] = tested on: FUMOZ; assay: as above; type: in vivo; details: Anopheles funestus, 24 h, Table B5c; 25 ppm; after 24 hours; FUMOZ
Experimental: as §9, §10, §11, §12

[14] = tested on: An. stephensi; assay: as above; type: in vivo
Experimental: as §9, §10, §11, §12

[15] = tested on: An. Gambiae Tiassalé; assay: as above; type: in vivo
Experimental: as §9, §10, §11, §12

Q: What does the source list for CO/C=C(/C(=O)OC)c1ccccc1Oc1nc(C(C)(C)C)ns1 [Compound 7, Methyl (E)-2-[2-[(3-tert-butyl-1,2,4-thiadiazol-5-yl)oxy]phenyl]-3-methoxy-prop-2-enoate]?
A: mortality ([1]; HDPE): 47%; knock-down ([1]; HDPE): 83%; mortality ([1]; LDPE): 97%; knock-down ([1]; LDPE): 100%; mortality ([1]; PP): 23%; knock-down ([1]; PP): 67%; mortality ([2]; HDPE, polymer 4 to 6 weeks old): 87%; knock-down ([2]; HDPE, polymer 4 to 6 weeks old): 93%; mortality ([2]; HDPE, polymer 6 to 8 weeks old): 87%; knock-down ([2]; HDPE, polymer 6 to 8 weeks old): 100%; mortality ([2]; LDPE, polymer 4 to 6 weeks old): 97%; knock-down ([2]; LDPE, polymer 4 to 6 weeks old): 100%; mortality ([2]; LDPE, polymer 6 to 8 weeks old): 100%; knock-down ([2]; LDPE, polymer 6 to 8 weeks old): 87%; mortality ([2]; PP, polymer 4 to 6 weeks old): 87%; knock-down ([2]; PP, polymer 4 to 6 weeks old): 93%; mortality ([2]; PP, polymer 6 to 8 weeks old): 77%; knock-down ([2]; PP, polymer 6 to 8 weeks old): 100%; mortality at 5 ppm [3]: 78%; mortality at 5 ppm [4]: 95%; Knockdown ([5]; 2.50 ppm, after 60 minutes, Caymon): 52%; mortality at 2.5 ppm ([5]; Aedes aegypti, 24 h): 28%; Knockdown ([6]; 2.50 ppm, after 60 minutes, New Orleans): 38%; mortality at 2.5 ppm ([6]; Aedes aegypti, 24 h): 100%; Knockdown ([7]; 2.50 ppm, after 60 minutes, An. stephensi): 40%; mortality at 2.5 ppm ([7]; Anopheles stephensi, 24 h): 100%; Knockdown ([8]; 2.50 ppm, after 60 minutes, Kisumu rdl): 90%; mortality at 2.5 ppm ([8]; Anopheles gambiae, 24 h): 100%; Knockdown ([9]; 2.50 ppm, after 60 minutes, Tiassalé): 90%; mortality at 2.5 ppm ([9]; Anopheles gambiae, 24 h): 85%; Knockdown ([10]; 2.50 ppm, after 60 minutes, Moz sus): 95%; mortality at 2.5 ppm ([10]; Anopheles arabiensis, 24 h): 100%; Knockdown (%) at 15 mins ([11]; 20 ppm, bottle): 100%; Knockdown (%) at 60 mins ([11]; 20 ppm, bottle): 100%; mortality at 20 ppm ([11]; Anopheles gambiae, 20 ppm, bottle, one hour exposure, after 24 hours): 99%; mortality at 25 ppm ([11]; Anopheles gambiae, 24 h, Table B5c, 25 ppm, after 24 hours): 97%; mortality at 25 ppm [12]: 19%; mortality at 25 ppm [13]: 20%; Knockdown (%) at 15 mins ([14]; 20 ppm, bottle, An. stephensi): 37%; Knockdown (%) at 60 mins ([14]; 20 ppm, bottle, An. stephensi): 100%; mortality at 20 ppm ([14]; Anopheles stephensi): 100%; Knockdown (%) at 15 mins ([15]; 20 ppm, bottle, Tiassalé): 70%; Knockdown (%) at 60 mins ([15]; 20 ppm, bottle, Tiassalé): 97%; mortality at 20 ppm ([15]; Anopheles gambiae): 95%
